Where two headings read alike, the source gives them in different places.
System: skin from a "hairless" mouse or human cadaver
Test: transdermal absorption (skin permeation) of nitroglycerin from polymer matrix dosage units, procedure of Keshary and Chien
Settings: for Enhancement Factor: Table XIV, 15% W/W nitroglycerin in DC-382 matrix
Text: Enhancing Factor is defined as the ratio of normalized permeation rate [in mcg/cm²/hr] of a dosage unit of this invention with skin permeation enhancer/the normalized permeation rate of a corresponding dosage unit without enhancer in the adhesive layer.
Pharm., 10 (6) 883-913(1984).

| Skin Permeation Rate Without | Enhancing Factor (0.8 mg/cm²) | Enhancing Factor (1.59 mg/cm²) | Enhancing Factor (3.18 mg/cm²) | SMILES | further results |
| --- | --- | --- | --- | --- | --- |
| 39.4 ± 4.32 mcg/cm²/hr |  |  |  | CCCCCCCCCCCCCC(=O)OCC(CO)OC(=O)CCCCCCCCCCCCC (racemic) [1,2-Dimyristoyl-RAC-Glycerol] | Enhancing Factor (1.6 mg/cm²): 1.03; Skin Permeation Rate With (1.6 mg/cm²): 40.64 ± 4.27 mcg/cm²/hr |
| 34.1 ± 1.62 mcg/cm²/hr |  |  |  | CCCCCCCCCCCCCC(=O)OCC(O)COC(=O)CCCCCCCCCCCCC (racemic) [1,3-Dimyristoyl-RAC-Glycerol] | Enhancing Factor (1.6 mg/cm²): 0.94; Skin Permeation Rate With (1.6 mg/cm²): 32.13 ± 6.94 mcg/cm²/hr |
| 34.1 ± 1.62 mcg/cm²/hr |  |  |  | CCCCCCCCCCCCCC(=O)OCC(O)CO (racemic) [1-Monomyristoly-RAC-Glycerol] | Skin Permeation Rate With: 29.88 ± 3.84 mcg/cm²/hr |
| 34.1 ± 1.62 mcg/cm²/hr |  |  |  | CCCCCCCCCCCCCCCC(=O)OCC(O)CO (racemic) [1-Monopalmitoyl-RAC-Glycerol] | Enhancing Factor (1.6 mg/cm²): 0.86; Skin Permeation Rate With (1.6 mg/cm²): 29.39 ± 1.76 mcg/cm²/hr |
|  | 2.59 | 4.11 | 4.41 | CCCCCCCCCC(=O)O [Enhancer B, Decanoic acid] |  |
|  | 1.67 | 1.92 | 3.07 | CCCCCCCCCCCCCC(=O)OCCC [Enhancer C, Propyl myristate] | Enhancing Factor (4.78 mg/cm²): 3.41 |
|  | 1.22 | 2.43 | 3.08 | CCCCCCCC/C=C\CCCCCCCC(=O)OCCC [Enhancer D, Propyl oleate] | Enhancing Factor (4.78 mg/cm²): 3.78 |
|  | 1.69 | 2.82 | 2.65 | CCCCCCCC/C=C\CCCCCCCCO [Enhancer E, Oleyl alcohol] |  |
|  | 1.61 | 1.87 |  | CCCCCCCCCC[S+](C)[O-] (centres unmarked) [Enhancer G, Decylmethyl sulfoxide] | Enhancing Factor (2.4 mg/cm²): 2.02; Enhancing Factor (5 mg/cm²): 1.36; Enhancing Factor (10 mg/cm²): 1.22 |
|  | 1.3 | 2.0 | 1.6 | CCCCCCCCCCCCCC(=O)N(C)C [Enhancer H, Myristic acid, N,N-dimethylamide] | Enhancing Factor (4.78 mg/cm²): 1.5 |
|  |  |  |  | O=[N+]([O-])OCC(CO[N+](=O)[O-])O[N+](=O)[O-] [NITROGLYCERIN, nitroglycerin, reference compound] | Enhancement Factor (enhancers (mg/cm²): (+) menthol 0.8 + capric acid 0.8 + Methyl Salicylate 0.8): 3.36; Enhancement Factor (enhancers (mg/cm²): (+) menthol 0.8 + capric acid 0.8 + Oleyl alcohol 0.8): 5.29; Enhancement Factor (enhancers (mg/cm²): (+) menthol 0.8 + capric acid 0.8 + Oleyl alcohol 1.6): 4.61; Enhancement Factor (enhancers (mg/cm²): (+) menthol 0.8 + capric acid 0.8 + Salicylic acid 0.8): 3.47 |

From EP0235259B1, “NOVEL TRANSDERMAL ANTI-ANGINAL PHARMACEUTICAL DOSAGE UNIT AND PROCESS FOR ITS ADMINISTRATION” (RUTGERS, THE STATE UNIVERSITY OF NEW JERSEY, priority 1985, dated 1987)
